From patent US9302999B2, “Substituted triazoles as herbicides” (E. I. DU PONT DE NEMOURS AND COMPANY, priority 2012, dated 2016)

Experiments:
Type in all cases: in vivo
[1] = system: japonica rice (ORYSP, Oryza sativa); experiment: Test G paddy, alone and in combination: japonica rice; conditions: evaluated after 14 days
Description: (§1) Seeds of smallflower umbrella sedge (CYPDI, Cyperus difformis) and ducksalad (HETLI, Heteranthera limosa) were sown on the soil surface in two separate quadrants of 11 cm tubs filled with steam pasteurized Tama soil. Simultaneously, plantings of barnyardgrass (ECHCG, Echinochloa crus-galli) and japonica rice (ORYSP, Oryza sativa) were established in separate “plug” flats. Plants were grown in a greenhouse using supplemental lighting to maintain a photoperiod of approximately 16 h; daytime and nighttime temperatures were approximately 27-30° C. and 19-22° C., respectively. After 8 days, barnyardgrass plants were transplanted to one of the remaining quadrants of the tub, and the water level was adjusted to a final depth of 3 cm. Herbicide application timing was targeted at the 2.0 to 2.5 leaf stage and the plants were treated with test chemicals formulated in a non-phytotoxic solvent. Treated plants and controls were maintained in a greenhouse for 14 days, after which time all species were compared to controls and visually evaluated. Plant response ratings are summarized in Tables G1 through G3, and are based on a scale of 0 to 100 where 0 is no effect and 100 is complete control. A dash (-) response means no test result.

[2] = system: barnyardgrass (ECHCG, Echinochloa crus-galli); experiment: Test G paddy, alone and in combination: barnyardgrass; conditions: evaluated after 14 days
Description: as §1

[3] = system: smallflower umbrella sedge (CYPDI, Cyperus difformis); experiment: Test G paddy, alone and in combination: smallflower umbrella sedge; conditions: evaluated after 14 days
Description: as §1

[4] = system: ducksalad (HETLI, Heteranthera limosa); experiment: Test G paddy, alone and in combination: ducksalad; conditions: evaluated after 14 days
Description: as §1

[5] = system: wheat (TRZAW, Triticum aestivum); experiment: Test H post-emergence, alone and in combination: wheat
Source text: (§2) Seeds of plant species selected from wheat (TRZAW, Triticum aestivum), barley (HORBW, Hordeum vulgare), Kochia (KCHSC, Kochia caoparia) blackgrass (ALOMY, Alopecurus myosuroides), canarygrass (PHAMI, Phalaris minor), Italian ryegrass (LOLMU, Lolium multiflorum) common lambsquarter (CHEAL, Chenopodium album), pigweed (AMARE, Amaranthus retroflexus), Common Chickweed (STEME, Stellaria media), Russian thistle (SASKR, Salsola iberica), Wild Buckwheat (POLCO, Polygonum convolvulus), Catchweed Bedstraw (GALAP, Galium aparine), Mustard (SINAR, Sinapisar arvensis), Henbit Deadnettle (LAMAM, Lamium amplexicaule), Wild Radish (RAPRA, Raphanus raphanistrum), Field Poppy (PAPRH, Papaver rhoeas), Field Violet (VIOAR, Viola arvennsis), Scentless Chamomile (MATIN Matricaria inodora) were planted into soil and treated post-emergence with test chemicals formulated in a non-phytotoxic solvent mixture. Plants were grown in a greenhouse using supplemental lighting to maintain a photoperiod of approximately 14 hours; daytime and nighttime temperatures were approximately 23°-29° and 16°-19° Celsius, respectively. Balanced fertilizer was applied through the watering system. Treated plants and controls were maintained in a greenhouse for 20 days, after which time all species were compared to controls and visually evaluated. Plant response ratings were calculated as the mean of three replicates (unless otherwise indicated), are summarized in Table G, and are based on a scale of 0 to 100 where 0 is no effect and 100 is complete control. A dash (-) response means no test result.

[6] = system: barley (HORBW, Hordeum vulgare); experiment: Test H post-emergence, alone and in combination: barley
Source text: as §2

[7] = system: Kochia (KCHSC, Kochia caoparia); experiment: Test H post-emergence, alone and in combination: Kochia
Source text: as §2

[8] = system: blackgrass (ALOMY, Alopecurus myosuroides); experiment: Test H post-emergence, alone and in combination: blackgrass
Outline: (§3)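 Seedlings grown in soil were sprayed post-emergence with test chemicals in a non-phytotoxic solvent mixture, then kept in a greenhouse (~14 h photoperiod, ~23°-29° day/16°-19° night Celsius) for 20 days. Injury was rated visually against untreated controls on a 0–100 scale (100 = complete control), averaged over three replicates.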

[9] = system: canarygrass (PHAMI, Phalaris minor); experiment: Test H post-emergence, alone and in combination: canarygrass
Outline: as §3

[10] = system: Italian ryegrass (LOLMU, Lolium multiflorum); experiment: Test H post-emergence, alone and in combination: Italian ryegrass
Source text: as §2

[11] = system: common lambsquarter (CHEAL, Chenopodium album); experiment: Test H post-emergence, alone and in combination: common lambsquarter
Outline: as §3

[12] = system: pigweed (AMARE, Amaranthus retroflexus); experiment: Test H post-emergence, alone and in combination: pigweed
Outline: as §3

[13] = system: Common Chickweed (STEME, Stellaria media); experiment: Test H post-emergence, alone and in combination: Common Chickweed
Outline: as §3

[14] = system: Russian thistle (SASKR, Salsola iberica); experiment: Test H post-emergence, alone and in combination: Russian thistle
Source text: as §2

[15] = system: Wild Buckwheat (POLCO, Polygonum convolvulus); experiment: Test H post-emergence, alone and in combination: Wild Buckwheat
Outline: as §3

[16] = system: Catchweed Bedstraw (GALAP, Galium aparine); experiment: Test H post-emergence, alone and in combination: Catchweed Bedstraw
Outline: as §3

[17] = system: Mustard (SINAR, Sinapisar arvensis); experiment: Test H post-emergence, alone and in combination: Mustard
Source text: as §2

[18] = system: Henbit Deadnettle (LAMAM, Lamium amplexicaule); experiment: Test H post-emergence, alone and in combination: Henbit Deadnettle
Outline: as §3

[19] = system: Wild Radish (RAPRA, Raphanus raphanistrum); experiment: Test H post-emergence, alone and in combination: Wild Radish
Source text: as §2

[20] = system: Field Poppy (PAPRH, Papaver rhoeas); experiment: Test H post-emergence, alone and in combination: Field Poppy
Source text: as §2

[21] = system: Field Violet (VIOAR, Viola arvennsis); experiment: Test H post-emergence, alone and in combination: Field Violet
Source text: as §2

[22] = system: Scentless Chamomile (MATIN Matricaria inodora); experiment: Test H post-emergence, alone and in combination: Scentless Chamomile
Outline: as §3

In the case of `COCCCn1c(-c2cccc(OC)c2)ncc(C(=O)C2=C(O)CCCC2=O)c1=O` [b12a, 5-[(2-hydroxy-6-oxo-1-cyclohexen-1-yl)carbonyl]-2-(3-methoxyphenyl)-3-(3-methoxypropyl)-4(3H)-pyrimidinone], the “ORYSP plant response rating (scale of 0 to 100)” value (from here on “ORYSP plant response rating”) ([1]; Rate 125 g/ha) was 5, the “ECHCG plant response rating (scale of 0 to 100)” value (“ECHCG plant response rating” below) ([2]; Rate 125 g/ha) was 35 and the “CYPDI plant response rating (scale of 0 to 100)” value (shortened to “CYPDI plant response rating”) ([3]; Rate 125 g/ha) was 80. The “HETLI plant response rating (scale of 0 to 100)” value (“HETLI plant response rating” for short) ([4]; Rate 125 g/ha) was 80.

With `COC(=O)c1ccccc1CS(=O)(=O)NC(=O)Nc1nc(OC)cc(OC)n1` [b2a, bensulfuron-methyl] the “ORYSP plant response rating” value ([1]; Rate 16 g/ha) was 0, the “ORYSP plant response rating” value ([1]; Rate 31 g/ha) was 0 and the “ORYSP plant response rating” value ([1]; Rate 32 g/ha) was 0. For the same compound, the “ORYSP plant response rating” value ([1]; Rate 62 g/ha) was 0, the “ORYSP plant response rating” value ([1]; Rate 64 g/ha) was 0 and the “ORYSP plant response rating” value ([1]; Rate 125 g/ha) was 0. For the same compound, the “ECHCG plant response rating” value ([2]; Rate 16 g/ha) was 60, the “ECHCG plant response rating” value ([2]; Rate 31 g/ha) was 68 and the “ECHCG plant response rating” value ([2]; Rate 32 g/ha) was 60. For the same compound, the “ECHCG plant response rating” value ([2]; Rate 62 g/ha) was 75, the “ECHCG plant response rating” value ([2]; Rate 64 g/ha) was 68 and the “ECHCG plant response rating” value ([2]; Rate 125 g/ha) was 75. For the same compound, the “CYPDI plant response rating” value ([3]; Rate 16 g/ha) was 90, the “CYPDI plant response rating” value ([3]; Rate 31 g/ha) was 90 and the “CYPDI plant response rating” value ([3]; Rate 32 g/ha) was 90. The “CYPDI plant response rating” value ([3]; Rate 62 g/ha) was 93, the “CYPDI plant response rating” value ([3]; Rate 64 g/ha) was 90 and the “CYPDI plant response rating” value ([3]; Rate 125 g/ha) was 93. For the same compound, the “HETLI plant response rating” value ([4]; Rate 16 g/ha) was 90, the “HETLI plant response rating” value ([4]; Rate 31 g/ha) was 95 and the “HETLI plant response rating” value ([4]; Rate 32 g/ha) was 90. For the same compound, the “HETLI plant response rating” value ([4]; Rate 62 g/ha) was 98, the “HETLI plant response rating” value ([4]; Rate 64 g/ha) was 95 and the “HETLI plant response rating” value ([4]; Rate 125 g/ha) was 98.

`COC(=O)c1sccc1S(=O)(=O)NC(=O)Nc1nc(C)nc(OC)n1` [b2c, thifensulfuron-methyl] was tested, and the TRZAW plant response ([5]; Rate 8) was 0, the TRZAW plant response ([5]; Rate 16) was 0 and the TRZAW plant response ([5]; Rate 31) was 0. The TRZAW plant response ([5]; Rate 62) was 5, the HORBW plant response ([6]; Rate 8) was 0 and the HORBW plant response ([6]; Rate 16) was 5. For the same compound, the HORBW plant response ([6]; Rate 31) was 5, the HORBW plant response ([6]; Rate 62) was 5 and the KCHSC plant response ([7]; Rate 8) was 70. It also gave a KCHSC plant response ([7]; Rate 16) of 85, a KCHSC plant response ([7]; Rate 31) of 95 and a KCHSC plant response ([7]; Rate 62) of 100. For the same compound, the ALOMY plant response ([8]; Rate 8) was 10, the ALOMY plant response ([8]; Rate 16) was 45 and the ALOMY plant response ([8]; Rate 31) was 60. The ALOMY plant response ([8]; Rate 62) was 65, the PHAMI plant response ([9]; Rate 8) was 10 and the PHAMI plant response ([9]; Rate 16) was 60. It also gave a PHAMI plant response ([9]; Rate 31) of 70, a PHAMI plant response ([9]; Rate 62) of 90 and an LOLMU plant response ([10]; Rate 8) of 20. For the same compound, the LOLMU plant response ([10]; Rate 16) was 50, the LOLMU plant response ([10]; Rate 31) was 70 and the LOLMU plant response ([10]; Rate 62) was 90. It also gave a CHEAL plant response ([11]; Rate 8) of 85, a CHEAL plant response ([11]; Rate 16) of 70 and a CHEAL plant response ([11]; Rate 31) of 100. For the same compound, the CHEAL plant response ([11]; Rate 62) was 95, the AMARI plant response ([12]; Rate 8) was 100 and the AMARI plant response ([12]; Rate 16) was 100. It also gave an AMARI plant response ([12]; Rate 31) of 100, an AMARI plant response ([12]; Rate 62) of 100 and an STEME plant response ([13]; Rate 8) of 85. The STEME plant response ([13]; Rate 16) was 100, the STEME plant response ([13]; Rate 31) was 100 and the STEME plant response ([13]; Rate 62) was 100. For the same compound, the SASKR plant response ([14]; Rate 8) was 100, the SASKR plant response ([14]; Rate 16) was 100 and the SASKR plant response ([14]; Rate 31) was 100. For the same compound, the SASKR plant response ([14]; Rate 62) was 100, the POLCO plant response ([15]; Rate 8) was 95 and the POLCO plant response ([15]; Rate 16) was 95. For the same compound, the POLCO plant response ([15]; Rate 31) was 95, the POLCO plant response ([15]; Rate 62) was 95 and the GALAP plant response ([16]; Rate 8) was 80. It also gave a GALAP plant response ([16]; Rate 16) of 90, a GALAP plant response ([16]; Rate 31) of 75 and a GALAP plant response ([16]; Rate 62) of 95. The SINAR plant response ([17]; Rate 8) was 80, the SINAR plant response ([17]; Rate 16) was 90 and the SINAR plant response ([17]; Rate 31) was 85. The SINAR plant response ([17]; Rate 62) was 95, the LAMAM plant response ([18]; Rate 8) was 60 and the LAMAM plant response ([18]; Rate 16) was 70. The LAMAM plant response ([18]; Rate 31) was 75, the LAMAM plant response ([18]; Rate 62) was 75 and the RAPRA plant response ([19]; Rate 8) was 95. The RAPRA plant response ([19]; Rate 16) was 75, the RAPRA plant response ([19]; Rate 31) was 100 and the RAPRA plant response ([19]; Rate 62) was 95. The PAPRH plant response ([20]; Rate 8) was 70, the PAPRH plant response ([20]; Rate 16) was 75 and the PAPRH plant response ([20]; Rate 31) was 100. The PAPRH plant response ([20]; Rate 62) was 100, the VIOAR plant response ([21]; Rate 8) was 80 and the VIOAR plant response ([21]; Rate 16) was 85. It also gave a VIOAR plant response ([21]; Rate 31) of 75, a VIOAR plant response ([21]; Rate 62) of 95 and an MATIN plant response ([22]; Rate 8) of 95. For the same compound, the MATIN plant response ([22]; Rate 16) was 90, the MATIN plant response ([22]; Rate 31) was 100 and the MATIN plant response ([22]; Rate 62) was 100.
